Measured values published in ChEMBL document CHEMBL3616377, “2-(3'-Indolyl)-N-arylthiazole-4-carboxamides: Synthesis and evaluation of antibacterial and anticancer activities” (Bioorg Med Chem Lett, 2015).
Converted amounts (≈) assume the structure as drawn.

How the values were obtained:
Escherichia coli [1] = experiment: Antibacterial activity against Escherichia coli MTCC 1652 after 18 to 24 hrs by agar well diffusion method; assay type: functional
HeLa [2] = experiment: Cytotoxicity against human HeLa cells after 48 hrs by MTT assay in absence of 10% FBS; assay type: functional, cell-based
[3] = Cytotoxicity against human castration-resistant C4-2 cells after 48 hrs by MTT assay in presence of 10% FBS; assay type: functional, cell-based; conditions: LNCaP C4-2, 48 h
Staphylococcus aureus [4] = experiment: Antibacterial activity against Staphylococcus aureus MTCC 96 after 18 to 24 hrs by agar well diffusion method; assay type: functional
Pseudomonas putida [5] = experiment: Antibacterial activity against Pseudomonas putida MTCC 102 after 18 to 24 hrs by broth microdilution method; assay type: functional
Escherichia coli [6] = experiment: Antibacterial activity against Escherichia coli MTCC 1652 after 18 to 24 hrs by broth microdilution method; assay type: functional
PC-3 [7] = experiment: Cytotoxicity against human PC3 cells after 48 hrs by MTT assay in presence of 10% FBS; assay type: functional, cell-based; conditions: PC-3, 48 h
Staphylococcus aureus [8] = experiment: Antibacterial activity against Staphylococcus aureus MTCC 96 after 18 to 24 hrs by broth microdilution method; assay type: functional
Pseudomonas putida [9] = experiment: Antibacterial activity against Pseudomonas putida MTCC 102 after 18 to 24 hrs by agar well diffusion method; assay type: functional
LNCaP [10] = experiment: Cytotoxicity against human LNCAP cells after 48 hrs by MTT assay in presence of 10% FBS; assay type: functional, cell-based
HeLa [11] = experiment: Cytotoxicity against human HeLa cells after 48 hrs by MTT assay in presence of 10% FBS; assay type: functional, cell-based
MDA-MB-231 [12] = experiment: Cytotoxicity against human MDA-MB-231 cells after 48 hrs by MTT assay in absence of 10% FBS; assay type: functional, cell-based; conditions: MDA-MB-231, 48 h
PC-3 [13] = experiment: Cytotoxicity against human PC3 cells after 48 hrs by MTT assay in absence of 10% FBS; assay type: functional, cell-based; conditions: PC-3, 48 h
[14] = Cytotoxicity against human castration-resistant C4-2 cells after 48 hrs by MTT assay in absence of 10% FBS; assay type: functional, cell-based; conditions: LNCaP C4-2, 48 h
HEK-293T [15] = experiment: Cytotoxicity against human HEK293T cells after 48 hrs by MTT assay in absence of 10% FBS; assay type: cell-based
LNCaP [16] = experiment: Cytotoxicity against human LNCAP cells after 48 hrs by MTT assay in absence of 10% FBS; assay type: functional, cell-based
HEK-293T [17] = experiment: Cytotoxicity against human HEK293T cells after 48 hrs by MTT assay in presence of 10% FBS; assay type: cell-based
MDA-MB-231 [18] = experiment: Cytotoxicity against human MDA-MB-231 cells after 48 hrs by MTT assay in presence of 10% FBS; assay type: functional, cell-based; conditions: MDA-MB-231, 48 h
Bacillus subtilis [19] = experiment: Antibacterial activity against Bacillus subtilis MTCC 121 after 18 to 24 hrs by broth microdilution method; assay type: functional
Bacillus subtilis [20] = experiment: Antibacterial activity against Bacillus subtilis MTCC 121 after 18 to 24 hrs by agar well diffusion method; assay type: functional
[21] = Solubility of the compound in 0.05 to 0.1% DMSO; assay type: physicochemical

SMILES | inhibition zone (IZ) (Escherichia coli [1]) [mm] | IC50 (HeLa [2]) [µM] | IC50 [3] [µM] | inhibition zone (IZ) (Staphylococcus aureus [4]) [mm] | MIC (Pseudomonas putida [5]) [µg/mL] | MIC (Escherichia coli [6]) [µg/mL] | IC50 (PC-3 [7]) [µM] | MIC (Staphylococcus aureus [8]) [µg/mL] | inhibition zone (IZ) (Pseudomonas putida [9]) [mm] | IC50 (LNCaP [10]) [µM] | IC50 (HeLa [11]) [µM] | IC50 (MDA-MB-231 [12]) [µM] | IC50 (PC-3 [13]) [µM] | IC50 [14] [µM] | IC50 (HEK-293T [15]) [µM] | IC50 (LNCaP [16]) [µM] | IC50 (HEK-293T [17]) [µM] | IC50 (MDA-MB-231 [18]) [µM] | MIC (Bacillus subtilis [19]) [µg/mL] | inhibition zone (IZ) (Bacillus subtilis [20]) [mm] | also measured
O=C(Nc1ccccc1)c1csc(-c2c[nH]c3ccccc23)n1 | 13 | > 100 | > 100 | 14 | 100 (≈ 313 µM) | 100 (≈ 313 µM) | > 100 | 50 (≈ 157 µM) | 13 | > 100 | > 100 | 79.4 | > 100 | > 100 | 41.1 | > 100 | > 100 | > 100 | – | – | –
O=C(Nc1ccccc1)c1csc(-c2cn(Cc3ccc(Cl)cc3)c3ccccc23)n1 | 15 | 24.3 | > 100 | 12 | 50 (≈ 113 µM) | 50 (≈ 113 µM) | > 100 | 100 (≈ 225 µM) | 15 | 68.9 | 32.1 | 50.5 | 76.4 | > 100 | > 100 | 64.1 | > 100 | > 100 | 100 (≈ 225 µM) | 13 | –
COc1cc(NC(=O)c2csc(-c3c[nH]c4ccc(Br)cc34)n2)cc(OC)c1OC | 14 | 55.8 | > 100 | 15 | 12.5 (≈ 25.6 µM) | 50 (≈ 102 µM) | > 100 | 50 (≈ 102 µM) | 16 | > 100 | 93 | > 100 | > 100 | > 100 | > 100 | > 100 | 32.8 | > 100 | 12.5 (≈ 25.6 µM) | 16 | –
COc1cc(NC(=O)c2csc(-c3cn(Cc4ccc(Cl)cc4)c4ccccc34)n2)cc(OC)c1OC | 15 | 91.4 | > 100 | 13 | 100 (≈ 187 µM) | 50 (≈ 93.6 µM) | > 100 | 100 (≈ 187 µM) | 14 | > 100 | > 100 | > 100 | > 100 | > 100 | 58.7 | 97.7 | > 100 | > 100 | 100 (≈ 187 µM) | 12 | –
O=C(O)c1cn(C2CC2)c2cc(N3CCNCC3)c(F)cc2c1=O [CIPROFLOXACIN] | – | – | – | 23 | 12.5 (≈ 37.7 µM) | – | – | – | 21 | – | – | – | – | – | – | – | – | – | 6.25 (≈ 18.9 µM) | 24 | –
O=C(Nc1ccc(F)cc1)c1csc(-c2c[nH]c3ccccc23)n1 | 13 | – | – | 12 | 100 (≈ 296 µM) | 100 (≈ 296 µM) | – | 100 (≈ 296 µM) | 12 | – | – | – | – | – | – | – | – | – | 100 (≈ 296 µM) | 10 | solubility [21]: Insoluble
CN(C)c1ccc(NC(=O)c2csc(-c3c[nH]c4ccccc34)n2)cc1 | 12 | – | – | 13 | 50 (≈ 138 µM) | 100 (≈ 276 µM) | – | 100 (≈ 276 µM) | 14 | – | – | – | – | – | – | – | – | – | 50 (≈ 138 µM) | 14 | solubility [21]: Insoluble
Cc1ccc(NC(=O)c2csc(-c3c[nH]c4ccccc34)n2)cc1 | 12 | > 100 | > 100 | – | 100 (≈ 300 µM) | 100 (≈ 300 µM) | > 100 | – | 12 | > 100 | > 100 | > 100 | > 100 | > 100 | > 100 | > 100 | > 100 | > 100 | – | – | –
COc1cc(NC(=O)c2csc(-c3c[nH]c4ccc(F)cc34)n2)cc(OC)c1OC | 14 | > 100 | > 100 | 12 | 50 (≈ 117 µM) | 50 (≈ 117 µM) | > 100 | 100 (≈ 234 µM) | 14 | 88.5 | 48.9 | > 100 | 89 | > 100 | > 100 | > 100 | 66 | > 100 | 100 (≈ 234 µM) | 10 | –
COc1ccc(NC(=O)c2csc(-c3c[nH]c4ccc(F)cc34)n2)cc1 | 14 | 3.41 | > 100 | 12 | 100 (≈ 272 µM) | 50 (≈ 136 µM) | > 100 | 100 (≈ 272 µM) | 13 | 75.4 | 33.5 | 49.4 | > 100 | > 100 | 12.1 | 66.4 | > 100 | > 100 | 100 (≈ 272 µM) | 13 | –
O=C(NCc1ccccc1)c1csc(-c2c[nH]c3ccccc23)n1 | 13 | 9.51 | > 100 | – | 100 (≈ 300 µM) | 100 (≈ 300 µM) | > 100 | – | 13 | > 100 | 41.4 | > 100 | > 100 | > 100 | > 100 | > 100 | 74.5 | > 100 | – | – | –
COc1ccc(NC(=O)c2csc(-c3cn(Cc4ccc(Cl)cc4)c4ccccc34)n2)cc1 | 16 | > 100 | > 100 | 14 | 12.5 (≈ 26.4 µM) | 12.5 (≈ 26.4 µM) | > 100 | 100 (≈ 211 µM) | 16 | > 100 | 90.9 | 84.9 | > 100 | > 100 | > 100 | > 100 | > 100 | > 100 | 50 (≈ 105 µM) | 15 | –
